Earlier results on 24 substances are cited in publication PMC11768433 (Viruses, 2024).

Where two headings read alike, the source gives them in different places. Where only a bound is given, the exact number is not on record here.

Data set [1] deals with Herpes simplex virus type 1(HSV-1). Also noted: method as in Ref.18572274. Particulars: HSV-1 entry, Vero cells, at 250μM; ref Ref.18572274.
For data set [2], the system named is Vero cells. Details: method as in Ref.18572274. The note with it: up to 500 μM, ref Ref.18572274.
The subject of data set [3] is Vero cells. Details: method as in Ref.35055066. Particulars: ref Ref.35055066.
In data set [4] the test system is P4-CCR5 cells. Also noted: method as in Ref.15780876. Particulars: ref Ref.15780876.
Data set [5] concerns Vero cells. Also noted: method as in Ref.35216177. The note with it: ref Ref.35216177.
Data set [6] deals with HSV-1. Details: method as in Ref.35216177. The note with it: HSV-1 replication, Vero cells; ref Ref.35216177.
Data set [7] relates to SARS-CoV-2. Details: method as in Ref.35216177. The note with it: SARS-CoV-2 replication, Vero cells; ref Ref.35216177.
The subject of data set [8] is HCoV-229E. Details: method as in Ref.35216177. The note with it: HCoV-229E replication, Vero cells; ref Ref.35216177.
The subject of data set [9] is HPIV-3. Details: method as in Ref.35216177. Particulars: HPIV-3 replication, Vero cells; ref Ref.35216177.
For data set [10], the system named is HCoV-OC43. Also noted: method as in Ref.35216177. Particulars: HCoV-OC43 replication, Vero cells; ref Ref.35216177.
For data set [11], the system named is HSV-2. Also noted: method as in Ref.35216177. The note with it: HSV-2 replication, Vero cells; ref Ref.35216177.
For data set [12], the system named is Human endocervical cells End1/E6E7. Details: method as in Ref.26026377. The note with it: ref Ref.26026377.
Data set [13] deals with TZM-bl cell. Details: method as in Ref.30089693. Particulars: ref Ref.30089693.
In data set [14] the test system is PBMC.
Data set [15] has as its system MT-4 cell. Details: method as in Ref.30089693. The note with it: ref Ref.30089693.
The subject of data set [16] is H9 cells. Details: method as in Ref.12480936. The note with it: up to 50 μM, ref Ref.12480936.
In data set [17] the test system is Huh7.5.1 cells. Details: method as in Ref.22378192. Particulars: ref Ref.22378192.
Data set [18] relates to HSV. Details: method as in Ref.35663971. The note with it: Huh7 cells, at 10 μM, ref Ref.35663971.
Data set [19] has as its system Dengue virus 2(DENV2). Details: method as in Ref.35663971. Particulars: DENV2, Huh7 cells, at 10 μM; ref Ref.35663971.
Data set [20] has as its system SARS-CoV-2. Also noted: method as in Ref.35663971. Particulars: SARS-CoV-2, Huh7 cells, at 10 μM; ref Ref.35663971.
Data set [21] has as its system Vero E6 cells. Details: method as in Ref.35663971. The note with it: ref Ref.35663971.
Data set [22] deals with HIV-1. Details: method as in Ref.12054767. Particulars: up to 100 μM; ref Ref.12054767.
Data set [23] deals with P4 cells. Also noted: method as in Ref.12054767. The note with it: MTT assay, peptide concentrations higher than 100 μM, ref Ref.12054767. (Formazan colour is commonly taken as a measure of viable cells.)
Data set [24] has as its system MDCK cells. Also noted: method as in Ref.17005658. The note with it: up to 50μM, ref Ref.17005658.
The test system of data set [25] is hepatitis C virus(HCVpp). Also noted: method as in Ref.20156485. Particulars: Huh-7 human hepatoma cells, ref Ref.20156485.
Data set [26] has as its system Huh-7 cells. Also noted: method as in Ref.20156485. The note with it: ref Ref.20156485.
For data set [27], the system named is TZM-bl cells. Details: method as in Ref.30867304. The note with it: ref Ref.30867304.
Data set [28] concerns U937 cells. Also noted: method as in Ref.30867304. Particulars: U937 cells (cell text ends after μ); ref Ref.30867304.
The test system of data set [29] is MT-4 cells. Also noted: method as in Ref.30867304. The note with it: ref Ref.30867304.
Data set [30] relates to Human PBMC. Also noted: method as in Ref.30867304. The note with it: ref Ref.30867304.
Data set [31] has as its system C8166 cells. Also noted: method as in Ref.30867304. The note with it: ref Ref.30867304.
Data set [32] concerns Human parainfluenza viruse 3(HPIV 3). Also noted: method as in Ref.28344321. Particulars: HPIV 3 infection, Vero cells; ref Ref.28344321.
For data set [33], the system named is Vero cells. Details: method as in Ref.28344321. Particulars: ref Ref.28344321.

For orientation: inhibition means the percentage by which the read-out fell short of the control. On to AAHLIDALYAEFLGGRVLTT [DRAVPe01423], for which the inhibition in data set [1] is 60%. For the same substance, the “cytotoxicity” value in data set [2] is “[Ref.18572274]No cytotoxicity against Vero cells up to 500 μM”.

Take “AAHLIDALYAEFLGGRVLTTPVVHRALFYASAVLRQPFLAGVPSA [DRAVPe01422]”: in [2], the “cytotoxicity” value is “[Ref.18572274]No cytotoxicity against Vero cells up to 500 μM”.

Turning to “AIGSILGALAKGLPTLISWIKNR [DRAVPe00469, DRAVP database peptide AR-23]”, the CC50 in [3] is 25 µM.

Turning to “ALWKTLLKKVLKAAAK [DRAVPe01957, DRAVP database peptide, target HIV]”, the CC50 entry in data set [4] was “[Ref.15780876]P4-CCR5 cells:CC50>100 μM”.

Take “ALWMTLLKKVLKAAAKAALNAVLVGANA [DRAVPe01956, DRAVP database peptide, target HIV]”: the CC50 in data set [4] is 5.6 µM.

For orientation: IC90 means the concentration at which the effect reaches the 90% level. Turning to “FVPWFSKFlKRIL [DRAVPe00383, DRAVP database entry, TL peptide]”, in [5], the CC50 is 22.32 µM. Further, the IC90 in data set [6] is 10.5 µM; in [7] it was 12.9 µM; in [8], 50 µM; in [9], more than 50 µM; in data set [10], 16.3 µM; in [11], 7.99 µM.

On to “FVPWFSKFlkRIL [DRAVPe00384, DRAVP database entry, TL peptide]”, for which the CC50 in [5] is 45.92 µM. For the same substance, the IC90 was 12.7 µM in data set [6]; 25.3 µM in data set [7]; 50 µM in data set [8]; more than 50 µM in data set [9]; 29.2 µM in [10]; 12.5 µM in [11].

As for GLASTLTRWAHYNALIRAF [DRAVPe01424], the “cytotoxicity” value in data set [2] is “[Ref.18572274]No cytotoxicity against Vero cells up to 500 μM”.

For “GLFKVLGSVAKHLLPHVAPVIAEKL [DRAVPe00356, DRAVP database peptide, target HIV]”, the “concentration at 50% cell death” value in data set [12] is 12.5 µM.

As to “GLFSVLGAVAKHVLPHVVPVIAEKL [DRAVPe00355, DRAVP database peptide, target HIV]”, the “concentration at 50% cell death” value in data set [12] is 10 µM.

As to “GLLSVLGSVVKHVIPHVVPVIAEHL [DRAVPe00360, DRAVP database peptide, target HIV]”, the “concentration at 50% cell death” value in data set [12] is listed as 12.5 µM.

Take IEELIKKSEEQQKKNEEELKKLEX [DRAVPe00656]: the CC50 in [13] is 193.63 µM; in data set [14] (PBMC, ref Ref.30089693), 46.43 µM; in [15], 164.47 µM.

Take “KPKQIKPPLPSV [DRAVPe00130, DRAVP database peptide, target HIV-1 Vif proteins]”: in data set [16], the “cytotoxicity” value was “[Ref.12480936]No significant cytotoxicity on H9 cells up to 50 μM”.

“LPLPAPSFHRTT [DRAVPe00128, DRAVP database peptide, target HIV-1 Vif proteins]”: the “cytotoxicity” value in data set [16] is “[Ref.12480936]No significant cytotoxicity on H9 cells up to 50 μM”.

With “MANAGLQLLGFILAFLGW [DRAVPe01317, DRAVP database peptide, target HCV]”, in [17], the CC50 is ~200 Μm.

In the case of “MGRFKRFRKKFKKLFKKLS [DRAVPe01948, DRAVP database peptide bomidin]”, the figures for the inhibition in data set [18], in [19] and in data set [20] were 50%, 50% and 80%, respectively. Moreover, the CC50 in data set [21] is 169.6 µM.

On to “QLLIRMI [DRAVPe00092, DRAVP database peptide, target HIV-1 integrase]”, for which the “inhibition of HIV-1 infection” value in [22] is recorded as “no inhibition”. Also, in data set [23], the “decrease of cell viability” value is approximately 5%.

As to RRKKAAVALLPAVLLALLAP [DRAVPe01891], the “cytotoxicity” value in [24] was “[Ref.17005658]No cytotoxicity against MDCK cells up to 50μM”.

“SNQGGSPLPRSV [DRAVPe00127, DRAVP database peptide, target HIV-1 Vif proteins]”: the “cytotoxicity” value in [16] is “[Ref.12480936]No significant cytotoxicity on H9 cells up to 50 μM”.

What is called EC90 is the point of the concentration-response curve where the effect stands at 90%. On to VSFAIKWEYVLLLFLL [DRAVPe01483], for which the EC90 in data set [25] is 14 ± 12 µM. For the same substance, the “cytotoxicity” value in [26] was “[Ref.20156485]No cytotoxicity against Huh-7 cells”.

Regarding “WEQKIEELLKKAEEQQKKNEEELKKLEKX [DRAVPe00787]”, the CC50 is 12.34 µM in data set [27]; 9.97 μ in [28]; 19.65 µM in data set [29]; 40.27 µM in data set [30]; 19.19 µM in [31].

“XGSGSGVALDPIDIAnti-SIVLNKAKSDLEESKEWIRRSNGKLDSI [DRAVPe01796]”: in data set [32], the IC90 was 0.0001 ± 1e-07 µM. For the same substance, in data set [33], the CC50 result is “[Ref.28344321]Vero cells: CC50>10000 nM”.

“YTSLIEELIKKSEEQQKKNEEELKKLEX [DRAVPe00783]”: the CC50 was 106.4 µM in data set [13], 40.01 µM in data set [14] and 138.37 µM in data set [15].

As to “YTSLIHSLIEESQNQQEKNEQELLELDX [DRAVPe00782]”, the CC50 is 800.8 µM in data set [13]; 212.6 µM in data set [14] (PBMC, ref Ref.30089693); 366.3 µM in [15].
